Literature values as cited in patent US20100035949A1 (priority 2006, published 2010).

Key:
[1] = humans
[2] = pH dependent; decreases as pH increases from acidic to neutral

## CCCCC(=O)N(Cc1ccc(-c2ccccc2-c2nnn[nH]2)cc1)[C@H](C(=O)O)C(C)C [valsartan, (S)-N-valeryl-N-{[2′-(1H-tetrazole-5-yl)-biphenyl4-yl]-methyl}-valine]
[1]; known dosage forms
  oral bioavailability: about 25%
[1]; wide range with large inter- and intra-subject variabilities
  oral bioavailability, range: 25-40%
[2]
  permeability: low
